# Measurements as given in publication PMC12058161, “The plant matrix of Artemisia annua L. for the treatment of malaria: Pharmacodynamic and pharmacokinetic studies” (PLOS One, 2025).
# Where “and” joins values, the source holds several entries; their conditions need not be identical. Equal values may be shown once. Read-outs that look alike come from different tables or passages of the source.
# What was measured:
# [1] = male, Sprague Dawley, rat, in vivo
# Description: (§1) Blood samples were centrifuged at 3500 rpm for 5 min at 4°C. All plasma samples were then stored at -80°C until analysis.
# (§2) All samples were stored in a refrigerator at -80°C and thawed at room temperature before processing. A 50 μL aliquot of plasma was added with 5 μL of the standard solution (or acetonitrile) and 100 μL of internal standard solution in turn, vortexed and mixed, then sonicated for 3 min, centrifuged at 14000 rpm for 10 min at low temperature. The supernatant was transferred to an autosampler vial and analyzed by UHPLC-ESI-MS/MS.
# (§3) The mobile phase consisted of 0.1% formic acid solution (A) and acetonitrile (B).
# (§4) The ESI ionization source was used and detected in MRM mode.
# (§5) All data were presented as mean ± SD. Pharmacokinetic parameters including half-life (t1/2), maximum plasma time (Tmax) and concentration (Cmax), area under concentration-time curve (AUC0-t and AUC0-∞), clearance (CL), steady-state volume of distribution (Vz), and mean residence time (MRT) were analyzed by non-compartmental method using DAS Version 2.0 (Chinese Pharmacological Society, Beijing, China). […] The data were analyzed by Student’s t-test for two groups and one-way analysis of variance for multiple groups; p < 0.05 was considered statistically significant.
# [2] = Stability of the five compounds in SD rat plasma (QC samples, UHPLC-ESI-MS/MS); format: in vitro ADME; details: for 3 freeze-thaw cycles mean ± SD / 7 days at -80°C mean ± SD / Room temperature 24h mean ± SD: SD rat plasma QC sample; for stability, Accuracy (measured versus nominal concentration) / stability, mean ± SD (measured concentration): SD rat plasma, n=5
# in vivo = details: male, Sprague Dawley, rat, po; for MRT last: MRT(0-t); for MRT inf: MRT(0-∞)
# Description: as §1, §2, §3, §4, §5
# Caco-2 cells = assay: Cytotoxicity in Caco-2 cells, CCK-8 assay; format: cell-based, human; details: for Cell survival rate%: mean; for cck-8 mean (survival fraction): mean of 6
# In short: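 Caco-2 cells, pre-grown 48 h, were exposed to compounds for 48 h at 37 °C with 0.05% v/v DMSO final. Viability was measured by CCK-8 (2 h, absorbance 450 nm) relative to negative-control cells.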
# [3] = nominal 40 ng/mL, 3 freeze-thaw cycles
# [4] = nominal 40 ng/mL, 7 days at -80°C
# [5] = nominal 1000 ng/mL, 3 freeze-thaw cycles
# [6] = nominal 1000 ng/mL, 7 days at -80°C
# [7] = nominal 5000 ng/mL, 3 freeze-thaw cycles
# [8] = nominal 5000 ng/mL, 7 days at -80°C
# [9] = nominal 40 ng/mL, Room temperature 24h
# [10] = nominal 1000 ng/mL, Room temperature 24h
# [11] = nominal 5000 ng/mL, Room temperature 24h
# [12] = Caco-2, concentration 10 μmol/L
# [13] = Caco-2, concentration 20 μmol/L
# [14] = Caco-2, concentration 40 μmol/L
# [15] = Caco-2, concentration 80 μmol/L
compound,measurement,setting,value
"C[C@@H]1CC[C@H]2[C@@H](C)C(=O)O[C@@H]3O[C@@]4(C)CC[C@@H]1[C@]32OO4 [ART, Artemisinin, reference compound]",plasma concentration (plasma concentration-time curve),[1]; 0.08 h,180.137
same,plasma concentration (plasma concentration-time curve),[1]; 0.5 h,247.263
same,plasma concentration (plasma concentration-time curve),[1]; 1 h,173.84
same,plasma concentration (plasma concentration-time curve),[1]; 1.5 h,81.963
same,plasma concentration (plasma concentration-time curve),[1]; 2 h,51.011
same,plasma concentration (plasma concentration-time curve),[1]; 3 h,33.992
same,plasma concentration (plasma concentration-time curve),[1]; 4 h,27.897
same,Vz,"[1]; po, 100 mg/kg",0.08 ± 0.03 L
same,CL,"[1]; po, 352 mg/kg",0.032 ± 0.018 L/h
same,Vz,"[1]; po, 352 mg/kg",0.061 ± 0.008 L
same,"Stability in plasma, measured concentration (mean ± SD)","[2]; 3 freeze-thaw cycles, QC concentration 40 ng/mL",38.5 ± 2.35 ng/mL
same,"Stability in plasma, measured concentration (mean ± SD)","[2]; 3 freeze-thaw cycles, QC concentration 1000 ng/mL",1053 ± 29.9 ng/mL
same,"Stability in plasma, measured concentration (mean ± SD)","[2]; 3 freeze-thaw cycles, QC concentration 5000 ng/mL",4629 ± 113 ng/mL
same,"Stability in plasma, measured concentration (mean ± SD)","[2]; 7 days at -80°C, QC concentration 40 ng/mL",40.3 ± 0.80 ng/mL
same,"Stability in plasma, measured concentration (mean ± SD)","[2]; 7 days at -80°C, QC concentration 1000 ng/mL",1051 ± 29.5 ng/mL
same,"Stability in plasma, measured concentration (mean ± SD)","[2]; 7 days at -80°C, QC concentration 5000 ng/mL",4673 ± 65.9 ng/mL
same,"Stability, measured concentration, mean ± SD","[2]; QC sample 40 ng/mL, 3 freeze-thaw cycles",38.5 ± 2.35 ng/mL
same,"Stability, measured concentration, mean ± SD","[2]; QC sample 40 ng/mL, 7 days at -80°C",40.3 ± 0.80 ng/mL
same,"Stability, measured concentration, mean ± SD","[2]; QC sample 40 ng/mL, Room temperature 24h",41.1 ± 1.49 ng/mL
same,"Stability, measured concentration, mean ± SD","[2]; QC sample 1000 ng/mL, 3 freeze-thaw cycles",1053 ± 29.9 ng/mL
same,"Stability, measured concentration, mean ± SD","[2]; QC sample 1000 ng/mL, 7 days at -80°C",1051 ± 29.5 ng/mL
same,"Stability, measured concentration, mean ± SD","[2]; QC sample 1000 ng/mL, Room temperature 24h",1070 ± 40.9 ng/mL
same,"Stability, measured concentration, mean ± SD","[2]; QC sample 5000 ng/mL, 3 freeze-thaw cycles",4629 ± 113 ng/mL
same,"Stability, measured concentration, mean ± SD","[2]; QC sample 5000 ng/mL, 7 days at -80°C",4673 ± 65.9 ng/mL
same,"Stability, measured concentration, mean ± SD","[2]; QC sample 5000 ng/mL, Room temperature 24h",5229 ± 418 ng/mL
same,"Stability in plasma, measured concentration (mean ± SD)","[2]; Room temperature 24h, QC concentration 40 ng/mL",41.1 ± 1.49 ng/mL
same,"Stability in plasma, measured concentration (mean ± SD)","[2]; Room temperature 24h, QC concentration 1000 ng/mL",1070 ± 40.9 ng/mL
same,"Stability in plasma, measured concentration (mean ± SD)","[2]; Room temperature 24h, QC concentration 5000 ng/mL",5229 ± 418 ng/mL
same,3 freeze-thaw cycles mean ± SD,[2]; [3],38.5 ± 2.35 ng/mL
same,7 days at -80°C mean ± SD,[2]; [4],40.3 ± 0.80 ng/mL
same,Room temperature 24h mean ± SD,[2]; nominal 40 ng/mL,41.1 ± 1.49 ng/mL
same,3 freeze-thaw cycles mean ± SD,[2]; [5],1053 ± 29.9 ng/mL
same,7 days at -80°C mean ± SD,[2]; [6],1051 ± 29.5 ng/mL
same,Room temperature 24h mean ± SD,[2]; nominal 1000 ng/mL,1070 ± 40.9 ng/mL
same,3 freeze-thaw cycles mean ± SD,[2]; [7],4629 ± 113 ng/mL
same,7 days at -80°C mean ± SD,[2]; [8],4673 ± 65.9 ng/mL
same,Room temperature 24h mean ± SD,[2]; nominal 5000 ng/mL,5229 ± 418 ng/mL
same,"stability, Accuracy (measured versus nominal concentration)",[2]; [3],96.14%
same,"stability, mean ± SD (measured concentration)",[2]; [3],38.5 ± 2.35 ng/mL and 38.46 ng/mL
same,"stability, Accuracy (measured versus nominal concentration)",[2]; [4],100.80%
same,"stability, mean ± SD (measured concentration)",[2]; [4],40.3 ± 0.80 ng/mL and 40.32 ng/mL
same,"stability, Accuracy (measured versus nominal concentration)",[2]; [9],102.70%
same,"stability, mean ± SD (measured concentration)",[2]; [9],41.1 ± 1.49 ng/mL and 41.08 ng/mL
same,"stability, Accuracy (measured versus nominal concentration)",[2]; [5],105.28%
same,"stability, mean ± SD (measured concentration)",[2]; [5],1053 ± 29.9 ng/mL and 1052.79 ng/mL
same,"stability, Accuracy (measured versus nominal concentration)",[2]; [6],105.14%
same,"stability, mean ± SD (measured concentration)",[2]; [6],1051 ± 29.5 ng/mL and 1051.42 ng/mL
same,"stability, Accuracy (measured versus nominal concentration)",[2]; [10],106.95%
same,"stability, mean ± SD (measured concentration)",[2]; [10],1070 ± 40.9 ng/mL and 1069.53 ng/mL
same,"stability, Accuracy (measured versus nominal concentration)",[2]; [7],92.59%
same,"stability, mean ± SD (measured concentration)",[2]; [7],4629 ± 113 ng/mL and 4629.47 ng/mL
same,"stability, Accuracy (measured versus nominal concentration)",[2]; [8],93.45%
same,"stability, mean ± SD (measured concentration)",[2]; [8],4673 ± 65.9 ng/mL and 4672.51 ng/mL
same,"stability, Accuracy (measured versus nominal concentration)",[2]; [11],104.57%
same,"stability, mean ± SD (measured concentration)",[2]; [11],5229 ± 418 ng/mL and 5228.53 ng/mL
same,AUC(0-inf),in vivo; 100 mg/kg,418 ± 133 ng·h/mL
same,AUC(0-t),in vivo; 100 mg/kg,386 ± 128 ng·h/mL
same,MRT last,in vivo; 100 mg/kg,1.18 ± 0.255 h
same,MRT inf,in vivo; 100 mg/kg,1.67 ± 0.333 h
same,AUC(0-inf),in vivo; 352 mg/kg,816 ± 383 ng·h/mL
same,AUC(0-t),in vivo; 352 mg/kg,763 ± 345 ng·h/mL
same,Cmax,"in vivo; 352 mg/kg, Cmax",513 ± 186 ng/mL
same,MRT last,in vivo; 352 mg/kg,1.71 ± 0.513 h
same,MRT inf,in vivo; 352 mg/kg,2.54 ± 0.785 h
same,Tmax,"in vivo; 352 mg/kg, Tmax",23.3 ± 19.7 min
same,"Cell survival rate%, single replicate","Caco-2 cells; Caco-2, 5μmol/L",82.52% and 83.77% and 87.9% and 78.48% and 85.79% and 77.82%
same,"Cell survival rate%, single replicate","Caco-2 cells; Caco-2, 10μmol/L",91.57% and 89.14% and 82.1% and 68.6% and 78.83% and 84.29%
same,"Cell survival rate%, single replicate","Caco-2 cells; Caco-2, 20μmol/L",80.46% and 80.92% and 80.32% and 81.46% and 82.88% and 85.89%
same,"Cell survival rate%, single replicate","Caco-2 cells; Caco-2, 40μmol/L",70.44% and 87.86% and 77.89% and 75.6% and 92.55% and 87.29%
same,"Cell survival rate%, single replicate","Caco-2 cells; Caco-2, 80μmol/L",82.12% and 82.82% and 84.32% and 77.9% and 76.8% and 84.01%
same,"cck-8 cell survival as fraction, single replicate","Caco-2 cells; Caco-2, concentration 5 μmol/L",0.8252 and 0.8377 and 0.879 and 0.7848 and 0.8579 and 0.7782
same,Cell survival rate%,"Caco-2 cells; Caco-2, concentration 5 μmol/L",82.71%
same,cck-8 mean (survival fraction),"Caco-2 cells; Caco-2, concentration 5 μmol/L",0.827
same,"cck-8 cell survival as fraction, single replicate",Caco-2 cells; [12],0.9157 and 0.8914 and 0.821 and 0.686 and 0.7883 and 0.8429
same,Cell survival rate%,Caco-2 cells; [12],82.42%
same,cck-8 mean (survival fraction),Caco-2 cells; [12],0.824
same,"cck-8 cell survival as fraction, single replicate",Caco-2 cells; [13],0.8046 and 0.8092 and 0.8032 and 0.8146 and 0.8288 and 0.8589
same,Cell survival rate%,Caco-2 cells; [13],81.99%
same,cck-8 mean (survival fraction),Caco-2 cells; [13],0.820
same,"cck-8 cell survival as fraction, single replicate",Caco-2 cells; [14],0.7044 and 0.8786 and 0.7789 and 0.756 and 0.9255 and 0.8729
same,Cell survival rate%,Caco-2 cells; [14],81.94%
same,cck-8 mean (survival fraction),Caco-2 cells; [14],0.819
same,"cck-8 cell survival as fraction, single replicate",Caco-2 cells; [15],0.8212 and 0.8282 and 0.8432 and 0.779 and 0.768 and 0.8401
same,Cell survival rate%,Caco-2 cells; [15],81.33%
same,cck-8 mean (survival fraction),Caco-2 cells; [15],0.813
